The results in this text go back to patent US20210346506A1, “PRODRUG OF ITRACONAZOLE AND USES THEREOF” (priority 2020, published 2021).

Data set [1] in a line: Pharmacokinetic study of itraconazole release in mice after intravenous and oral dosing of Compound 3. Type of data set: in vivo, mouse. The note with it: for Plasma itraconazole Concentration (ng/mL): mice, individual mice. On the procedure:
Compound 3 was dissolved in DMSO:PEG400:water (1:4:5, v/v/v) with a final concentration of 0.2 mg/ml or 0.5 mg/ml. The 0.2 mg/ml solution was used for intravenous dosing, and the 0.5 mg/ml solution was for oral dosing.
Three male C57BL/6 mice were intravenously administered with Compound 3 at a dose of 1.0 mg/kg, and blood samples were collected at 2 min, 15 min, 30 min, 1 h, 2 h, 4 h, 6 h, 8 h, and 24 h post administration.
Three male C57BL/6 mice were orally given Compound 3 at a dose of 5.0 mg/kg, and blood samples were collected at 15 min, 30 min, 1 h, 2 h, 4 h, 6 h, 8 h, and 24 h post administration.
(§1) And dose levels were corrected in PK parameter calculation due to the salt factor.
(§2) The blood samples were subject to LC-MS/MS analysis, to monitor the plasma concentrations of both the parent compound and Itraconazole.
(§3) Column: Waters XSELECT HSS T3 2.5 μm 2.1×50 mm
(§4) Mobile phase: 5% Acetonitrile in Water (0.1% Formic acid) (A) and 95% Acetonitrile in Water (0.1% Formic acid) (B)
(§5) Gradient: flow rate at 0.6 mL/min
(§6) AB Sciex Triple Quad 5500 LC/MS/MS instrument (Serial NO. BB212611510)
(§7) Quantification: Internal Standard Method

Data set [2] can be described thus: Compound stability test in human blood. Format: in vitro ADME. The note with it: for Remaining Percentages (%) / half-life at 1 μM: 37° C., 1 μM; for half-life at 1 μM: in vitro half-life in human blood. On the procedure: (§8) One (1) mM test compound working solution was prepared in DMSO. One (1) mM propantheline working solution was prepared in acetonitrile, wherein propantheline was used as positive control in this assay.
(§9) Ten (10) μL of each test compound solution and the control compound solution were respectively added into a 96 deep well plate, and 40 μL of acetonitrile:water (V/V=1:1) was added to each well to dilute the 1 mM test compound solution to 200 μM working solution.
(§10) Mouse blood (male CD-1 mouse blood, Pharmaron, Lot# PH-ADME-Mouse-20180329) or human blood (Pharmaron, Lot# PH-ADME-Human-20180329) of 398 μL was added to each well of an incubation plate, and then the incubation plate was pre-warmed at 37° C. for 15 minutes. After the pre-incubation, 2 μL of 200 μM working solution prepared above was spiked to the pre-warmed 398 μL blood to reach a final concentration of 1 μM. The final concentration of DMSO was 0.1% and the final concentration of acetonitrile was 0.2%. The assay was performed in duplicate.
(§11) The incubation plate was incubated at 37° C. water bath with shaking at 50 rpm, and aliquots of 50 μL were taken from each well of the incubation plate at 0, 10, 30, 60, 90, 120 and 180 minutes.
(§12) The reaction was stopped by the addition of 50 μL of pure water. The plate was vortexed for 30 seconds at 1,000 rpm and then added with 300 μL of cold acetonitrile containing internal standards (100 nM aprozolam, 200 nM caffeine, 100 nM tolbutamide).
(§13) All samples were vortexed for 10 minutes, followed by centrifugation at 14,000 rpm for 15 minutes to precipitate proteins. 100 μL of each supernatant was transferred to a new plate, and diluted with ultrapure water according to the LC-MS signal response and peak shape.
(§14) Samples were analyzed by LC-MS/MS.
(§15) • LC system: ACQUITY UPLC® I-Class • MS analysis: Waters XEVO® TQ-D with an ESI interface • Column temperature: 40° C. • Injection volume: 3 μL • Column: Waters XSelect HSS T3 C18, 2.5 μm, 2.1×50 mm column • Mobile phase: 0.1% formic acid in water (A) and 0.1% formic acid in acetonitrile (B)
(§16) • Ion source: Turbo spray • Ionization model: ESI • Scan type: MRM • Cone gas: 150 L/h • Desolvation gas: 1000 L/h • Desolvation temperature: 500° C. • Capillary voltage: 3.00 KV
(§17) All calculations were carried out using Microsoft Excel. Peak area ratios were determined from extracted ion chromatograms, and percent compounds remaining at each time point were calculated by the following equation:
(§18) Remaining Percentaget min(%)=Peak Area Ratiot min/Peak Area Ratio0 min×100, where Peak Area Ratiot min referred to peak area ratio of control and test compounds at t min; and Peak Area Ratio0 min referred to peak area ratio of control and test compounds at zero time point. The in vitro half-life (in vitro t1/2) was determined from the slope value: In vitro T1/2=−(0.693/k).

A short description of data set [3]: Compound stability test in mouse blood. Format: in vitro ADME. The note with it: for half-life at 1 μM: male, CD-1, in vitro half-life in mouse blood; for half-life at 1 μM / Remaining Percentages (%): 37° C., 1 μM. On the procedure:
as §8, §9, §10, §11, §12, §13, §14, §15, §16, §17, §18

Data set [4] is described as follows: Pharmacokinetic study of itraconazole release in mice after intravenous and oral dosing of Compound 6. Format: in vivo, mouse. To be noted: for Plasma itraconazole Concentration (ng/mL): mice, individual mice. How it is done: Compound 6 was dissolved in DMSO:PEG400:water (1:4:5, v/v/v) with a final concentration of 0.2 mg/ml or 0.5 mg/ml. The 0.2 mg/ml solution was used for intravenous dosing, and the 0.5 mg/ml solution was for oral dosing.
Three male C57BL/6 mice were intravenously administered with Compound 6 at a dose of 1.0 mg/kg, and blood samples were collected at 2 min, 15 min, 30 min, 1 h, 2 h, 4 h, 6 h, 8 h, and 24 h post administration.
Three male C57BL/6 mice were orally given Compound 6 at a dose of 5.0 mg/kg, and blood samples were collected at 15 min, 30 min, 1 h, 2 h, 4 h, 6 h, 8 h, and 24 h post administration.
as §1, §2, §3, §4, §5, §6, §7

For orientation: half-life means the time needed for the level to fall by half in the phase considered. Low values mean fast loss, high ones slow loss. Regarding `CCC(C)n1ncn(-c2ccc(N3CCN(c4ccc(OCC5COC(Cn6c[n+](COC(C)=O)cn6)(c6ccc(Cl)cc6Cl)O5)cc4)CC3)cc2)c1=O.[Cl-]` (stereo not drawn) [Compound 3], in data set [1] (male C57BL/6 mice, 1.0 mg/kg intravenous or 5.0 mg/kg oral Compound 3), the “abnormal clinical symptoms during the test” value is “No mice were observed with abnormal clinical symptoms”. Moreover, the “Plasma itraconazole Concentration (ng/mL)” value in data set [1] (IV Dose 0.860 mg/kg Compound 3, 8 h, 0.86 mg/kg) is “BLOQ”; in data set [1] (IV Dose 0.860 mg/kg Compound 3, 24 h) it was “BLOQ”; in data set [1] (PO Dose 4.30 mg/kg Compound 3, 24 h), “BLOQ”. For the same compound, the “stability in blood, in words” value in data set [2] (human blood) and in data set [3] (mouse blood) was “more stable among exemplary compounds” each time. The “Remaining Percentages (%)” value in data set [2] (human blood, 0 min) is reported as 100%; in data set [2] (human blood, 10 min), 94.0%; in data set [2] (human blood, 30 min), 82.3%; in data set [2] (human blood, 60 min), 67.5%; in data set [2] (human blood, 90 min), 61.5%; in data set [2] (human blood, 120 min) it was 55.3%. Further, the “Remaining Percentages (%)” value in data set [2] (human blood, 180 min) is 34.3%; in data set [3] (mouse blood, 0 min), 100%; in data set [3] (mouse blood, 10 min) it was 88.1%; in data set [3] (mouse blood, 30 min), 67.1%; in data set [3] (mouse blood, 60 min), 46.3%; in data set [3] (mouse blood, 90 min), 30.3%. Further, the “Remaining Percentages (%)” value is 24.4% in data set [3] (mouse blood, 120 min) and 12.0% in data set [3] (mouse blood, 180 min). In addition, the half-life at 1 μM in data set [2] is 123 min; in data set [3] it was 59 min.
For the compound `CCOC(=O)OC[n+]1cnn(CC2(c3ccc(Cl)cc3Cl)OCC(COc3ccc(N4CCN(c5ccc(-n6cnn(C(C)CC)c6=O)cc5)CC4)cc3)O2)c1.[Cl-]` (stereo not drawn) [Compound 6], the “Remaining Percentages (%)” value in data set [2] (human blood, 0 min) turned out to be 100%; in data set [2] (human blood, 10 min), 94.2%; in data set [2] (human blood, 30 min), 77.3%; in data set [2] (human blood, 60 min), 55.3%; in data set [2] (human blood, 90 min), 41.1%; in data set [2] (human blood, 120 min), 34.0%. Also, the “Remaining Percentages (%)” value in data set [2] (human blood, 180 min) came to 15.2%; in data set [3] (mouse blood, 0 min), 100%; in data set [3] (mouse blood, 10 min), 51.5%; in data set [3] (mouse blood, 30 min), 12.6%; in data set [3] (mouse blood, 60 min) it was 3.10%; in data set [3] (mouse blood, 90 min) it was 0.595%. In addition, the “Remaining Percentages (%)” value in data set [3] (mouse blood, 120 min) is listed as 0.186%; in data set [3] (mouse blood, 180 min), 0.232%. Besides, the half-life at 1 μM in data set [2] amounted to 67.4 min; in data set [3], 10 min. Besides, in data set [4] (male C57BL/6 mice, 1.0 mg/kg intravenous or 5.0 mg/kg oral Compound 6), the “abnormal clinical symptoms during the test” value is “No mice were observed with abnormal clinical symptoms”. The “Plasma itraconazole Concentration (ng/mL)” value in data set [4] (IV Dose 0.822 mg/kg Compound 6, 8 h, 0.822 mg/kg) was “BLOQ”; in data set [4] (IV Dose 0.822 mg/kg Compound 6, 24 h), “BLOQ”; in data set [4] (PO Dose 4.11 mg/kg Compound 6, 24 h) it was “BLOQ”.
In the case of `CCC(C)n1ncn(-c2ccc(N3CCN(c4ccc(OCC5COC(Cn6c[n+](CC)cn6)(c6ccc(Cl)cc6Cl)O5)cc4)CC3)cc2)c1=O.[Cl-]` (stereo not drawn) [Compound 2], the “Remaining Percentages (%)” value in data set [2] (human blood, 0 min) was determined as 100%; in data set [2] (human blood, 10 min), 60.3%; in data set [2] (human blood, 30 min), 26.1%; in data set [2] (human blood, 60 min), 8.47%; in data set [2] (human blood, 90 min) it was 3.59%; in data set [2] (human blood, 120 min), 1.66%. Further, the “Remaining Percentages (%)” value is reported as 0.30% in data set [2] (human blood, 180 min); 100% in data set [3] (mouse blood, 0 min); 40.1% in data set [3] (mouse blood, 10 min); 16.2% in data set [3] (mouse blood, 30 min); 3.79% in data set [3] (mouse blood, 60 min); 0.90% in data set [3] (mouse blood, 90 min). The “Remaining Percentages (%)” value in data set [3] (mouse blood, 120 min) is on record as 0.175%; in data set [3] (mouse blood, 180 min), 0.00%. Further, the half-life at 1 μM is 15.6 min in data set [2] and 11.8 min in data set [3].
Consider `CCC(C)n1ncn(-c2ccc(N3CCN(c4ccc(OCC5COC(Cn6c[n+](COC(=O)C(C)C)cn6)(c6ccc(Cl)cc6Cl)O5)cc4)CC3)cc2)c1=O.[Cl-]` (stereo not drawn) [Compound 4], for which the “Remaining Percentages (%)” value is recorded as 100% in data set [2] (human blood, 0 min); 61.0% in data set [2] (human blood, 10 min); 30.2% in data set [2] (human blood, 30 min); 8.93% in data set [2] (human blood, 60 min); 4.67% in data set [2] (human blood, 90 min); “BLOD” in data set [2] (human blood, 120 min). Besides, the “Remaining Percentages (%)” value is on record as “BLOD” in data set [2] (human blood, 180 min); 100% in data set [3] (mouse blood, 0 min); 31.5% in data set [3] (mouse blood, 10 min); 4.04% in data set [3] (mouse blood, 30 min); “BLOD” in data set [3] (mouse blood, 60 min); “BLOD” in data set [3] (mouse blood, 90 min). The “Remaining Percentages (%)” value was “BLOD” in data set [3] (mouse blood, 120 min) and “BLOD” in data set [3] (mouse blood, 180 min). In addition, the half-life at 1 μM was determined as 17.7 min in data set [2] and 6.03 min in data set [3].
Regarding `CCC(C)n1ncn(-c2ccc(N3CCN(c4ccc(OCC5COC(Cn6c[n+](COC(=O)C(C)(C)C)cn6)(c6ccc(Cl)cc6Cl)O5)cc4)CC3)cc2)c1=O.[Cl-]` (stereo not drawn) [Compound 5], the “Remaining Percentages (%)” value was 100% in data set [2] (human blood, 0 min); 69.4% in data set [2] (human blood, 10 min); 30.4% in data set [2] (human blood, 30 min); 9.76% in data set [2] (human blood, 60 min); 5.50% in data set [2] (human blood, 90 min); 2.08% in data set [2] (human blood, 120 min). In addition, the “Remaining Percentages (%)” value is listed as “BLOD” in data set [2] (human blood, 180 min); 100% in data set [3] (mouse blood, 0 min); 23.9% in data set [3] (mouse blood, 10 min); 1.48% in data set [3] (mouse blood, 30 min); “BLOD” in data set [3] (mouse blood, 60 min); “BLOD” in data set [3] (mouse blood, 90 min). Moreover, the “Remaining Percentages (%)” value in data set [3] (mouse blood, 120 min) is given as “BLOD”; in data set [3] (mouse blood, 180 min), “BLOD”. For the same compound, the half-life at 1 μM in data set [2] turned out to be 18.1 min; in data set [3], 4.84 min.
